Columns and labels:
[1] = IM injection of abiraterone acetate formulations in rats; assay type: in vivo; details: vegetable oil solution versus aqueous suspension
Procedure: Typically, the abiraterone prodrugs of the present disclosure are formulated as a non-aqueous solution or suspension. In some embodiments, the non-aqueous solution or suspension provides higher levels of abiraterone in the plasma for a longer duration, when compared to an aqueous solution or suspension. For example, as detailed herein, IM injections of an aqueous suspension and a vegetable oil solution of the abiraterone acetate prodrug were evaluated in rats. […] Accordingly, in some embodiments, the abiraterone prodrug formulations herein can include an abiraterone prodrug of the present disclosure (e.g., compound of Formula I or II) dissolved or dispersed in a pharmaceutically acceptable carrier. In some embodiments, the pharmaceutically acceptable carrier can be any suitable nonaqueous vehicle suitable for injection, such as those described in U.S. Pharmacopeia. In some embodiments, the pharmaceutically acceptable carrier can be a pharmaceutically acceptable oil, e.g., a vegetable oil, castor oil, corn oil, sesame oil, cottonseed oil, peanut oil, poppy seed oil, tea seed oil, or soybean oil. In some embodiments, the pharmaceutically acceptable oil can be oils (e.g., described herein), suitable for use as vehicles for injection, e.g., meeting the criteria as described in the corresponding U.S. Pharmacopeia monograph. […]

[2] = tested on: mineralocorticoids, progesterone and pregnenolone; details: cited from earlier work

SMILES: CC(=O)O[C@H]1CC[C@@]2(C)C(=CC[C@@H]3[C@@H]2CC[C@]2(C)C(c4cccnc4)=CC[C@@H]32)C1 [abiraterone acetate, (3)-17-(3-Pyridyl)androsta-5, acetate]
- blood plasma levels and duration of exposure of abiraterone [1]: highest blood plasma levels and the longest duration of exposure
- increases in concentrations of mineralocorticoids ([2]; oral administration): 80 fold
- men with signs and symptoms of mineralocorticoid excess (hypertension, hypokalemia, edema) ([2]; oral administration): 30%
- increases in progesterone and pregnenolone ([2]; oral regimen): 40 fold
